{"source": "PubChem BioAssay AID743031", "about": "(The Scripps Research Institute Molecular Screening Center, 2013)", "key": {"Mouse Brain": {"tested_on": "Mouse Brain", "test": "mouse brain penetration after oral dosing – LC-MS/MS, powder samples, in vivo study for V1a-R antagonist project, late-stage follow-up (AID 743031)", "conditions": "C57Bl6 mouse, 10 mg/kg PO, LC-MS/MS at 60 min, 60 min after 10 mg/kg PO"}, "Mouse Plasma": {"tested_on": "Mouse Plasma", "test": "mouse brain penetration after oral dosing – LC-MS/MS, powder samples, in vivo study for V1a-R antagonist project, late-stage follow-up (AID 743031)", "conditions": "C57Bl6 mouse, 10 mg/kg PO, LC-MS/MS at 60 min, 60 min after 10 mg/kg PO"}, "[1]": {"conditions": "brain to plasma ratio, stronger effect = higher value"}}, "data": [{"smiles": "O=C(C1CCN(c2ccc(Cl)cn2)CC1)N(CC1CC1)c1ccc(Cl)cc1", "values": [{"measurement": "compound concentration", "setting": "Mouse Brain", "result": 3.27, "unit": "µM"}, {"measurement": "brain/plasma ratio", "setting": "Mouse Brain; [1]", "result": 1.28}, {"measurement": "compound concentration", "setting": "Mouse Plasma", "result": 2.56, "unit": "µM"}, {"measurement": "brain/plasma ratio", "setting": "Mouse Plasma; [1]", "result": 1.28}]}]}
